Measured values: ChEMBL document CHEMBL5046256, “The discovery of potent small molecule cyclic urea activators of STING” (Eur J Med Chem, 2022)
Calls of active or inactive are those of the source. The calls are words filed in the database; no cut-off is given here.

Tested on: HEK-293T
Assay: Agonist activity against human STING R232H variant transfected in HEK-293T cells co-expressing ISRE.ISG54 at 5 uM by luciferase reporter gene assay relative to control
Type: cell-based
Details: not given

Row | Structure (SMILES) | Activity
1 | CN1Cc2ccc(C(=O)NCc3cccc4c3OCO4)cc2N(Cc2c(F)cccc2Cl)C1=O | 4%
2 | Cc1ccc(CNC(=O)c2ccc3c(c2)N(Cc2cc(F)cc(F)c2)C(=O)N(C)C3)o1 | 16%
3 | CN1Cc2ccc(C(=O)NCc3cccc(C(=O)N4CCCC4)c3)cc2N(Cc2c(F)cccc2Cl)C1=O | inactive
4 | C[C@H]1c2ccc(C(=O)NCc3c(F)cc(F)cc3F)cc2N(Cc2c(Cl)c[nH]c(=O)c2F)C(=O)N1C | 16%
5 | CN1Cc2ccc(CNCc3c(F)cc(F)cc3F)cc2N(Cc2c(F)cccc2Cl)C1=O | 3%
6 | CN1Cc2ncc(C(=O)NCc3c(F)cc(F)cc3F)cc2N(Cc2cc(F)cc(F)c2)C1=O | 19%
7 | CN1Cc2ccc(C(=O)NCc3ccc4c(c3)CC(=O)N4)cc2N(Cc2c(F)cccc2Cl)C1=O | 2%
8 | CN1Cc2ccc(C(=O)NCc3cccc(N4CCOCC4)c3)cc2N(Cc2c(F)cccc2Cl)C1=O | inactive
9 | CN1Cc2ccc(C(=O)NCc3cccc(-n4cncn4)c3)cc2N(Cc2c(F)cccc2Cl)C1=O | inactive
10 | CN1Cc2ccc(C(=O)NCc3c(F)cc(F)cc3F)cc2N(Cc2cn(C)cn2)C1=O | 7%
11 | CN1Cc2ccc(C(=O)NCc3cccc(-c4ncco4)c3)cc2N(Cc2c(F)cccc2Cl)C1=O | inactive
12 | O=C(NCc1c(F)cc(F)cc1F)c1ccc2c(c1)N(Cc1c(F)cccc1Cl)C(=O)N(O)C2 | 8%
13 | O=C(NCc1c(F)cc(F)cc1F)c1ccc2c(c1)N(Cc1cc(F)cc(F)c1)C(=O)N(C1CC1)C2 | 13%
14 | CN1Cc2ccc(C(=O)NCc3cnc(-c4ccccc4)s3)cc2N(Cc2c(F)cccc2Cl)C1=O | inactive
15 | CN1Cc2ccc(C(=O)NCc3cccc(N4CCCC4=O)c3)cc2N(Cc2c(F)cccc2Cl)C1=O | inactive
16 | CN1Cc2ccc(C(=O)NCc3ccc(N4CCCC4=O)cc3)cc2N(Cc2c(F)cccc2Cl)C1=O | inactive
17 | CN1Cc2ccc(C(=O)NCc3ccc4c(c3)NCCO4)cc2N(Cc2c(F)cccc2Cl)C1=O | inactive
18 | CN1Cc2ccc(C(=O)NCc3cccc(-n4cccn4)c3)cc2N(Cc2c(F)cccc2Cl)C1=O | inactive
19 | CC1c2ccc(C(=O)NCc3c(F)cc(F)cc3F)cc2N(Cc2ccc(F)cc2Cl)C(=O)N1C (centres undefined) | 25%
20 | Cc1cc(CN2C(=O)N(C)Cc3ccc(C(=O)NCc4c(F)cc(F)cc4F)cc32)nn1C | 14%
21 | CN1Cc2ccc(C(=O)NCc3c(F)cc(F)cc3F)cc2N(Cc2ccnn2C)C1=O | 7%
22 | CN1Cc2ccc(C(=O)NCc3ccc(C(F)(F)F)nc3)cc2N(Cc2c(F)cccc2Cl)C1=O | inactive
23 | CN1Cc2ccc(C(=O)NCc3c(F)cc(F)cc3F)cc2N(Cc2cn3ccccc3n2)C1=O | 16%
24 | Cc1nc(CN2C(=O)N(C)Cc3ccc(C(=O)NCc4c(F)cc(F)cc4F)cc32)co1 | 13%
25 | Cn1cnc(N2Cc3ccc(C(=O)NCc4c(F)cc(F)cc4F)cc3N(Cc3c(F)cccc3Cl)C2=O)c1 | inactive
26 | CN1Cc2ccc(C(=O)NCc3ccc4cnn(C)c4c3)cc2N(Cc2c(F)cccc2Cl)C1=O | inactive

Same assay, conditions: filed as agonist

Row | Structure (SMILES) | Activity [%]
27 | Cc1ccc(Cl)c(CN2C(=O)N(C)Cc3ccc(C(=O)NCc4c(F)cc(F)cc4F)cc32)c1F | 68
28 | Cc1cc(CN2C(=O)N(C)C(C)c3ccc(C(=O)NCc4c(F)cc(F)cc4F)cc32)ccn1 (racemic) [listing 1 of 2 here] | 61
29 | CN1Cc2ccc(C(=O)NCc3ccc4ccoc4c3)cc2N(Cc2c(F)cccc2Cl)C1=O | 84
30 | CN1Cc2ccc(C(=O)NCc3c(F)cc(F)cc3F)cc2N(Cc2ccccc2Cl)C1=O | 76
31 | CN1Cc2ccc(C(=O)NCc3c(F)cc(F)cc3F)cc2N(Cc2cccc(C(N)=O)c2)C1=O | 57
32 | CN1Cc2ncc(C(=O)NCc3c(F)cc(F)cc3F)cc2N(Cc2c(F)cccc2Cl)C1=O | 76
33 | CN1Cc2ccc(C(=O)NCc3ccc4occc4c3)cc2N(Cc2c(F)cccc2Cl)C1=O | 70
34 | CON1Cc2ccc(C(=O)NCc3c(F)cc(F)cc3F)cc2N(Cc2c(F)cccc2Cl)C1=O | 82
35 | Cc1cc(CN2C(=O)N(C)Cc3ccc(C(=O)NCc4c(F)cc(F)cc4F)cc32)no1 | 68

Tested on: not listed separately
Assay: Agonist activity against human STING R232H variant transfected in HEK-293T cells co-expressing ISRE.ISG54 by luciferase reporter gene assay
Type: cell-based
Details: Homo sapiens, HEK-293T

Row | EC50 [µM] | Structure (SMILES)
36 | 0.403 | Cc1ccc(Cl)c(CN2C(=O)N(C)Cc3ccc(C(=O)NCc4c(F)cc(F)cc4F)cc32)c1F
37 | 0.2 | CC1c2ccc(C(=O)NCc3c(F)cc(F)cc3F)cc2N(Cc2ccc(F)cc2)C(=O)N1C (centres undefined)
38 | 3.34 | CN1Cc2ccc(C(=O)NCc3c(F)cc(F)cc3F)cc2N(Cc2ccncc2)C1=O
39 | 0.091 | Cc1cccc(CN2C(=O)N(C)C(C)c3ccc(C(=O)NCc4c(F)cc(F)cc4F)cc32)c1F (centres undefined)
40 | 0.27 | CC1c2ccc(C(=O)NCc3c(F)cc(F)cc3F)cc2N(Cc2ccccc2)C(=O)N1C (centres undefined)
41 | 2.34 | O=C(NCc1c(F)cc(F)cc1F)c1ccc2c(c1)N(Cc1cc(F)cc(F)c1)C(=O)NC2
42 | 0.047 | Cc1nccc(CN2C(=O)N(C)[C@@H](C)c3ccc(C(=O)NCc4c(F)cc(F)cc4F)cc32)c1F
43 | 0.153 | CC1c2ccc(C(=O)NCc3c(F)cc(F)cc3F)cc2N(Cc2ccccc2F)C(=O)N1C (racemic)
44 | 0.248 | COc1cccc(F)c1CN1C(=O)N(C)Cc2ccc(C(=O)NCc3c(F)cc(F)cc3F)cc21
45 | 0.157 | CC1c2ccc(C(=O)NCc3c(F)cc(F)cc3F)cc2N(Cc2c(F)cc(Cl)cc2F)C(=O)N1C (centres undefined)
46 | 0.388 | CC1c2ccc(C(=O)NCc3c(F)cc(F)cc3F)cc2N(Cc2ccncc2F)C(=O)N1C (centres undefined)
47 | 0.041 | Cc1cccc(F)c1CN1C(=O)N(C)C(C)c2ccc(C(=O)NCc3c(F)cc(F)cc3F)cc21 (centres undefined)
48 | 0.191 | CN1Cc2ccc(C(=O)NCc3c(F)cc(F)cc3F)cc2N(Cc2ccccc2F)C1=O
49 | 0.038 | Cc1ccc(Cl)c(CN2C(=O)N(C)[C@@H](C)c3ccc(C(=O)NCc4c(F)cc(F)cc4F)cc32)c1F
50 | 0.134 | Cc1nccc(CN2C(=O)N(C)C(C)c3ccc(C(=O)NCc4c(F)cc(F)cc4F)cc32)c1F (centres undefined)
51 | 0.06 | Cc1ccc(Cl)c(CN2C(=O)N(C)C(C)c3ccc(C(=O)NCc4c(F)cc(F)cc4F)cc32)c1F (centres undefined)
52 | 0.169 | C[C@H]1c2ccc(C(=O)NCc3c(F)cc(F)cc3F)cc2N(Cc2c(F)cncc2F)C(=O)N1C
53 | 0.369 | Cc1cccc(CN2C(=O)N(C)Cc3ccc(C(=O)NCc4c(F)cc(F)cc4F)cc32)c1F
54 | 0.181 | CC1c2ccc(C(=O)NCc3c(F)cc(F)cc3F)cc2N(Cc2c(F)cccc2C(F)(F)F)C(=O)N1C (centres undefined)

Row | EC50 [µM] | Structure (SMILES)
55 | 0.274 | CN1Cc2ccc(C(=O)NCc3c(F)cc(F)cc3F)cc2N(Cc2cc(F)cc(F)c2)C1=O
56 | 2.26 | CN1Cc2ccc(C(=O)NCc3cc4ccccc4o3)cc2N(Cc2cc(F)cc(F)c2)C1=O
57 | 0.45 | CN1Cc2ccc(C(=O)NCc3ccc(F)cc3F)cc2N(Cc2cc(F)cc(F)c2)C1=O
58 | 0.133 | CN1Cc2ccc(C(=O)NCc3c(F)cc(F)cc3F)cc2N(Cc2c(F)cccc2Cl)C1=O
59 | 1.04 | C[C@H]1c2ccc(C(=O)NCc3c(F)cc(F)cc3F)cc2N(Cc2ncccc2F)C(=O)N1C
60 | 0.036 | C[C@H]1c2ccc(C(=O)NCc3c(F)cc(F)cc3F)cc2N(Cc2c(F)ccc(F)c2Cl)C(=O)N1C
61 | 1.71 | Cc1ncc(CN2C(=O)N(C)Cc3ccc(C(=O)NCc4c(F)cc(F)cc4F)cc32)s1
62 | 0.039 | Cc1ncc(Cl)c(CN2C(=O)N(C)C(C)c3ccc(C(=O)NCc4c(F)cc(F)cc4F)cc32)c1F (centres undefined)
63 | 0.037 | Cc1ncc(Cl)c(CN2C(=O)N(C)[C@@H](C)c3ccc(C(=O)NCc4c(F)cc(F)cc4F)cc32)c1F
64 | 2.6 | C[C@@H]1c2ccc(C(=O)NCc3c(F)cc(F)cc3F)cc2N(Cc2c(F)cccc2Cl)C(=O)N1C
65 | 0.135 | Cc1ccc(CN2C(=O)N(C)[C@@H](C)c3ccc(C(=O)NCc4c(F)cc(F)cc4F)cc32)c(F)c1
66 | 0.317 | Cc1cccc(F)c1CN1C(=O)N(C)Cc2ccc(C(=O)NCc3c(F)cc(F)cc3F)cc21
67 | 0.047 | Cc1cccc(CN2C(=O)N(C)[C@@H](C)c3ccc(C(=O)NCc4c(F)cc(F)cc4F)cc32)c1F
68 | 0.029 | CC1c2ccc(C(=O)NCc3c(F)cc(F)cc3F)cc2N(Cc2c(F)cccc2Cl)C(=O)N1C (centres undefined)
69 | 0.196 | CN1Cc2ccc(C(=O)NCc3c(F)cc(F)cc3F)cc2N(Cc2ccc(F)cc2)C1=O
70 | 1.77 | C[C@H]1c2ccc(C(=O)NCc3c(F)cc(F)cc3F)cc2N(Cc2c(Cl)cn(C)c(=O)c2F)C(=O)N1C
71 | 0.98 | CN1Cc2ccc(C(=O)NCc3c(F)cc(F)cc3F)cc2N(Cc2ccccc2)C1=O
72 | 0.204 | CN1Cc2ccc(C(=O)NCc3c(F)cc(F)cc3F)cc2N(Cc2ccc(F)cc2F)C1=O

Same assay, conditions: hek-293t

Row | EC50 [µM] | Structure (SMILES)
73 | 0.122 | CC1c2ccc(C(=O)NCc3c(F)cc(F)cc3F)cc2N(Cc2ccccc2F)C(=O)N1C (stereo in doubt; 98)
74 | 0.117 | CC1c2ccc(C(=O)NCc3c(F)cc(F)cc3F)cc2N(Cc2cc(F)cc(F)c2)C(=O)N1C (stereo in doubt; 68)
75 | 0.021 | CC1c2ccc(C(=O)NCc3c(F)cc(F)cc3F)cc2N(Cc2c(F)cccc2F)C(=O)N1C (racemic) [listing 1 of 2 here]
76 | 0.47 | CC1c2ccc(C(=O)NCc3c(F)cc(F)cc3F)cc2N(Cc2cc(F)cc(F)c2)C(=O)N1C (racemic)
77 | 0.247 | Cc1cc(CN2C(=O)N(C)C(C)c3ccc(C(=O)NCc4c(F)cc(F)cc4F)cc32)ccn1 (racemic) [listing 2 of 2 here]
78 | 0.816 | Cc1cc(CN2C(=O)N(C)C(C)c3ccc(C(=O)NCc4c(F)cc(F)cc4F)cc32)ccn1 (stereo in doubt; 74)
79 | 0.051 | CC1c2ccc(C(=O)NCc3c(F)cc(F)cc3F)cc2N(Cc2c(F)cccc2F)C(=O)N1C (stereo in doubt; 72)

Tested on: HEK-293T
Assay: Agonist activity against human STING R232H variant transfected in HEK-293T cells co-expressing ISRE.ISG54 at 1 uM by luciferase reporter gene assay relative to control
Type: cell-based
Details: not given

Row | Structure (SMILES) | Activity [%]
80 | CN1Cc2ccc(C(=O)NCc3c(F)cc(F)cc3F)cc2N(Cc2c(F)cccc2C#N)C1=O | 15

Same assay, conditions: filed as agonist

Row | Structure (SMILES) | Activity [%]
81 | Cc1ccc(F)c(CN2C(=O)N(C)C(C)c3ccc(C(=O)NCc4c(F)cc(F)cc4F)cc32)n1 (centres undefined) | 60
82 | CC1c2ccc(C(=O)NCc3c(F)cc(F)cc3F)cc2N(Cc2c(F)cccc2F)C(=O)N1C (racemic) [listing 2 of 2 here] | 64
83 | CC1c2ccc(C(=O)NCc3c(F)cc(F)cc3F)cc2N(Cc2cc(C(N)=O)ccc2F)C(=O)N1C (centres undefined) | 71
84 | CC1c2ccc(C(=O)NCc3c(F)cc(F)cc3F)cc2N(Cc2c(F)cccc2S(C)(=O)=O)C(=O)N1C (centres undefined) | 61
